Measured values as given in publication PMC11407758, “Integrated stress response (ISR) activation and apoptosis through HRI kinase by PG3 and other p53 pathway-restoring cancer therapeutics” (Oncotarget, 2024).

Columns and labels:
Assay type in all cases: cell-based, human
HCT116 (WT) = experiment: Cell viability assay (CellTiterGlo), HCT116 WT; conditions: Homo sapiens, HCT-116; 72 h, CellTiterGlo
Protocol: (§1) Figure 1 PG3 inhibits cell proliferation and growth in a p53-indepent manner. (A–E) Cell viability assay, dose response curves and IC50 value measurements in a panel of cancer cell lines and normal cells. Cells were treated with different concentrations of PG3, PG3-Oc (Oc), obatoclax (Ob), prodigiosin (P) or DMSO for 72 h. Luciferase activity was imaged by the IVIS Imaging System after treatment. Cell viability data were normalized to those of DMSO treatment control in each cell line and data analyses were performed using PRISM4 software. IC50 data are expressed as the mean ±SD (normal; n = 3).
as §1, with “2 p53-dependent inhibition of” for “1 PG3 inhibits”, “is only observed at specific concentrations. (A–J)” for “and growth in a p53-indepent manner. (A–E)”, “ZMC1, CP-313908, APR-246, Ellipticine, Nutalin-3a” for “PG3, PG3-Oc (Oc), obatoclax (Ob), prodigiosin (P)”
Cells were seeded in 96-well plates (6 × 10^3 cells/well). Cells were treated with different concentrations of compounds or dimethyl sulfoxide (DMSO) as a control for 72 hours. The cell viability was assessed by CellTiterGlo bioluminescent cell viability assay (Promega), following the manufacturer’s protocol. Bioluminescence imaging was measured using the IVIS imager. The percentage of cell viability (mean ± SEM) at each dose was calculated against the respective DMSO control. The IC50 values were determined from the sigmoidal dose-response curves using GraphPad Prism.

[1] = test system: SW480 cells carrying a p53-responsive luciferase reporter; experiment: p53-responsive reporter assay; conditions: 1.11 μM, 6 hour and 15 hour time points
Protocol: SW480 cells carrying a p53-responsive luciferase reporter were used for assay of functional restoration of mutant p53. Cells were seeded in 96-well plates (5 × 10^4 cells/well) and were treated with compounds indicated for 6 and 15 h, respectively. Then, D-luciferin was added to each well with final concentration 100 μg/mL, and cells were imaged by using an IVIS Imaging System to detect luciferase activity.
p53-mutant SW480 human colon cancer cells, stably expressing a p53-responsive luciferase reporter, were used to assay functional restoration p53 pathway-dependent transcription in mutant p53-expressing tumor cells. Cells were seeded in 96-well plates (5 × 10^4 cells/well) and were treated with small-molecule compounds for 6 and 15 h, respectively. Then, D-luciferin was added to each well at a final concentration of 100 μg/mL, and cells were imaged by using an IVIS Imaging System (Xenogen) to detect luciferase activity.

p53 protein = experiment: Western blot, p53 protein levels
Protocol: Cells were treated for 24 h with indicated compounds, concentrations and cell lines. Abbreviations: S.E.: Short exposure; L.E.: Long exposure.
(§2) After treatment, protein lysates were collected for Western blot analysis. A total of 15 μg of protein was used for SDS-PAGE. After primary and secondary antibody incubations, the signal was detected by a chemiluminescence detection kit, imaged by Syngene (Imgen Technologies). Antibodies for NAG-1 (GDF15) and P53 were from Santa Cruz Biotechnology; for caspase 8, cleaved caspase 8, caspase 9, caspase 3, cleavage PARP, eIF2α, p-eIF2α (Ser51), CHOP, ATF4, DR5, and PUMA were from Cell Signaling Technology. Noxa and p21 were from Calbiochem. Ran was from BD Biosciences.

[2] = test system: cleaved caspase-8, -3, cleaved PARP and PUMA in HT29, SW480 and HCT116 p53−/− cells; experiment: Western blot, apoptosis markers in PG3-treated cells
Protocol: Figure 5 PG3 induces apoptosis in p53-null and p53-mutant cancer cell lines. (A–E) Dose-response and time-course analysis of cleavage of caspase-8, -3, cleaved PARP and PUMA in PG3-treated HT29, SW480 and HCT116 p53^−/− cells by western blot using the indicated antibodies. (F–H) Flowcytometry analysis of cell death. (I) HT29 and HT29-PUMA^−/− and (J) SW480 cells were co-treated with PG3 and pan-caspase inhibitor Z-VAD-fmk for 48 h. (K) HCT116 p53^−/− cell were co-treated with PG3 and Z-VAD-fmk for 24 hours.
as §2

IC50 (HCT116 (WT)): 0.071 µM
SMILES: CCc1c(C)[nH]c(/C=C2\N=C(c3ccc[nH]3)C=C2OC)c1C [PG3]
p53-responsive reporter activity [1]: do not activate reporter activity
wild-type p53 protein level (p53 protein; HCT116, 24 h): do not upregulate expression
endogenous mutant p53 R273H protein level (p53 protein; HT29, 24 h): no effects on stability
endogenous mutant p53 R175H protein level (p53 protein; TOV-112D, 24 h): no effects on stability
exogenous mutant p53 R175H protein level (p53 protein; engineered HCT116-R175H cells, 24 h): stabilize
time at which cleavage of PARP, caspase-8 and -3 occurs ([2]; HT29, HCT116 p53–/– and SW480): 48 h
concentration sufficient to induce PUMA and activate cleaved caspase-8 and -3 and cleaved-PARP ([2]; HT29 and SW480 cells, dose-response): 0.5 µM
caspase-9 activation ([2]; HT29 cells): does not activate caspase-9
time at which PUMA protein is first induced ([2]; time-course): 24 h
